# Measurements taken from PubChem BioAssay (NCI).
# “And” between values parts separate entries of the source, which are not always exact repeats. Identical values can stand only once.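 In this assay, cells in 96-well plates receive the compound at five concentrations for 48 hours. Endpoints are linearly interpolated between the surrounding concentrations. GI50: concentration for 50% inhibition of growth. TGI is the concentration that stops growth completely.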
# Tested on: MDA-MB-468 breast
# Experiment: NCI tumour cell line growth inhibition, 48 h
SMILES,GI50,TGI
Oc1c(Cl)cc(Cl)cc1/C=N/Nc1nnc(N/N=C/c2cc(Cl)cc(Cl)c2O)c2ccccc12,337 nM,1880 nM
COCCOC1=CC(=O)c2c(O)ccc(O)c2C1=O,1270 nM,2780 nM
CC(C)(C)c1cc(/C=N/NC(=O)c2ccccc2NC(=O)c2cccs2)c(O)c(C(C)(C)C)c1,386 nM,20500 nM
CN(C)CCCSc1ccccc1NC1=C(Cl)C(=O)C(Nc2ccccc2SCCCN(C)C)=C(Cl)C1=O,1520 nM,3220 nM
CC(C)(C)c1cc(NC(=O)Nc2ccc(-c3cn4c(n3)sc3cc(OCCN5CCOCC5)ccc34)cc2)no1,3640 nM and 2550 nM and > 10000 nM,12200 nM and 14200 nM and > 10000 nM
COC(=O)c1cc2oc(/C=C3/SC(=S)N(N)C3=O)cc2n1Cc1ccccc1,74400 nM,> 100000 nM
Cn1cc(-c2nc(-c3c[nH]c4ncccc34)cs2)c2ccccc21,314 nM,820 nM
O=C(c1ccc(C(F)(F)F)c(Cl)c1)N(Cc1ccc(Cl)cc1)c1ccc(-c2cc(C(F)(F)F)[nH]n2)c(O)c1,928 nM,3910 nM
CN1CCN(c2ccc(Nc3nc(NCCCNS(=O)(=O)c4ccccc4)c4sccc4n3)cc2)CC1,11800 nM,26400 nM
CC1(C)N=C(N)N=C(N)N1c1ccc(Cl)cc1,873 nM,> 100000 nM
Cc1ccc(C=C2C(Cl)=C(Cl)C(Cl)=C2Cl)cc1,189 nM,573 nM
CN(C)CC(=O)Nc1ccc2ncnc(Nc3ccc(Oc4cccc(C(F)(F)F)c4)c(Cl)c3)c2c1,1280 nM,3230 nM
COc1ccc(NC2=C(I)C(=O)c3ncccc3C2=O)cc1,1350 nM,2940 nM
Cn1cc(C2=C(c3cn(-c4ccccc4)c4ccccc34)C(=O)NC2=O)c2ccccc21,7580 nM,> 25000 nM
COc1ccc(C(=NN=C(N)N)c2ccc(OC)cc2)cc1,1710 nM,4710 nM
COc1cc(/C=C/c2cc(/C=C/c3ccc(O)c(OC)c3)n(C(=O)Nc3ccccc3Cl)n2)ccc1O,264 nM,748 nM
O=Nc1c(-c2c(O)[nH]c3cc(Br)ccc23)[nH]c2ccccc12,2000 nM,4930 nM
NC(=S)N/N=C1\c2ccccc2-c2c(F)c(F)c(F)c(F)c21,2490 nM,5140 nM
COC(=O)c1ccccc1CC1Cc2cc3c(cc2C1=O)CCC3 (configuration not stated),10600 nM,42100 nM
COc1cc(N2C(=O)[C@H](c3ccccc3)C2c2ccc(SC)cc2)cc(OC)c1OC (some centres not stated),27.1 nM,92.9 nM
COc1ccc(/C=C2\COc3ccc(O)c(O)c3C2=O)c(OC)c1OC,2180 nM,6280 nM
COc1cc(CNCCN2C(=O)c3ccc4c5c(ccc(c35)C2=O)C(=O)N(CCNCc2cc(OC)c(OC)c(OC)c2)C4=O)cc(OC)c1OC,123 nM,323 nM
Cc1ccc2cccc(OC(=O)Nc3cccc(C(F)(F)F)c3)c2n1,3650 nM,12900 nM

SMILES,GI50,TGI
COc1ccc(CCN(CC(=O)N(CC(N)=O)C2CCC[C@@H]2OCc2ccccc2)C(=O)CN(C(=O)CN(CCc2ccc(Cl)cc2)C(=O)CN(C(=O)CN(C)Cc2ccccc2F)[C@H](C)C2CCCCC2)[C@H](C)C2CCCCC2)cc1OC (some centres not stated),941 nM,4200 nM
COc1cc(/C=C2\CCC/C(=C\c3ccc(O)c(OC)c3)C2=O)ccc1O,1460 nM,3480 nM
O=c1cnnc(N/N=C/c2ccccc2O)[nH]1,265 nM,3320 nM
Cn1c(=O)nc2n(-c3ccc(Cl)cc3)c3cc(Cl)ccc3nc-2c1=O,1590 nM,3070 nM
O=C1c2cccnc2C(=O)c2c1c(C(=O)OCCN1CCCCC1)c1ccccn21,869 nM,2840 nM
CC(C)(C)CC(C)(C)c1ccc(O)c(Cc2ccc(Cl)cc2Cl)c1,1660 nM,3080 nM
CC(C)(c1ccccc1)c1cc(O)c(C(C)(C)c2ccccc2)cc1O,376 nM,3720 nM
COC(=O)[C@]12CC[C@@H](C)[C@H](C)[C@@H]1C1=CC[C@@H]3[C@@]4(C)C[C@@H](OC(=O)/C=C/c5ccccc5)[C@H](O)[C@@](C)(CO)[C@@H]4[C@H](O)C[C@@]3(C)[C@]1(C)CC2,2540 nM,8940 nM
O=C1CC(c2ccccc2)Cc2nc3ccc(Br)cc3cc21 (configuration not stated),2230 nM,7940 nM
C#Cc1cccc(Nc2ncnc3ccc(OCCCCNCCS(C)(=O)=O)cc23)c1,94 nM,666 nM
CC(C)[C@@](O)(c1ccc2cc(OC(F)F)c(OC(F)F)cc2c1)c1cn[nH]n1,12900 nM,47400 nM
CCCC(=O)NC(c1ccc2c(c1)OC(F)(F)O2)c1cc(C)c2cccnc2c1O (configuration not stated),370 nM,2210 nM
O=C(C=P(c1ccccc1)(c1ccccc1)c1ccccc1)CCl,268 nM,1280 nM
C=CC(=O)N1C[C@@H]2CCOc3c(Cl)c(-c4c(O)cccc4F)c(F)c4ncnc(c34)N2C[C@H]1C,2330 nM,10400 nM
CC1(C)N=C(N)N=C(N)N1c1ccc(OCCCNC(=O)Nc2cccc(S(=O)(=O)F)c2)c(Cl)c1,15700 nM,> 100000 nM
Clc1cc(Cl)c(OCCCCCCN2CCNCC2)c(Cl)c1,2140 nM,4610 nM
COc1ccc(C2CC(c3ccc(Nc4ccnc5cc(Cl)ccc45)cc3)=NN2C=O)cc1 (configuration not stated),1000 nM,6840 nM
COc1cccc(-c2cc(=O)c3cc(N4CCOCC4)ccc3[nH]2)c1,927 nM,> 100000 nM
C#CC(=O)Nc1cccc2c1cc(C)n2-c1nc2c(c(NCc3ccccc3)n1)CCCC2,211 nM,596 nM
N#Cc1c(NC(=O)c2ccc(F)cc2)sc2c1CCCC2,> 25000 nM,> 25000 nM
CCc1cnn2c(NCc3ccc[n+]([O-])c3)cc(N3CCCC[C@H]3CCO)nc12,< 10 nM and 2.21 nM,< 10 nM and 5.88 nM
CC(=O)CC/C=C(\C)[C@H](O)[C@H](C)C(=O)O[C@H]1C[C@H](C)C=C2C=C[C@@]3(C)O[C@@H](O)CC(=O)[C@]3(C)[C@H]21,454 nM,2000 nM
COC1=C(C)C(=O)c2c(c(CCCl)c3n2CCC3OC(C)=O)C1=O (configuration not stated),5010 nM,22500 nM
